Tested on: Increase in Intravesical Pressure Induced by Carbachol in Anesthetized Dog
Experiment: Effect on the increase in intravesical pressure induced by carbachol in anesthetized dog
Type: in vivo
Conditions: 0.032 mg/kg intravenously, 30 minutes before carbachol (1.8 μg/kg); female Beagle dogs under halothane anesthesia
Method: Effect on the Increase in Intravesical Pressure Induced by Carbachol in Anesthetized Dog
Female Beagle dogs weighing 8.0-15.0 kg were fasted for 24 hours and maintained under halothane anesthesia. A 12 F Foley catheter was lubricated with water soluble jelly, inserted into the urethral orifice and advanced approximately 10 cm until the balloon tip was placed well inside the bladder. The balloon was then inflated with 5 ml of room air and catheter slowly withdrawn just part the first resistance that is felt at the bladder neck. Urine was completely drained out through the catheter, and 30 ml of biological saline was infused. The catheter was connected to pressure transducer, and intravesical pressure (IVP) was continuously recordered. The test compound was administered intravenously at 30 minutes before the administration of carbachol (1.8 μg/kg). Percent inhibition of IVP increase by test compound was calculated by dividing IVPa (IVP increase induced by carbachol after test compound administaration) by IVPb (IVP increase induced by carbachol just before test compound administration).

COc1ccc(Oc2ccc3c(c2)C[C@@H](NC[C@H](O)c2ccc(Cl)cc2)CC3)cc1C(=O)O.Cl [Test Compound (1), 5-[[(7S)-7-[[(2R)-2-(4-Chlorophenyl)-2-hydroxyethyl]-amino]-5,6,7,8-tetrahydro-2-naphthalenyl]oxy]-2-methoxybenzoic Acid Hydrochloride]
Percent inhibition of IVP increase: 54%

— patent US20050090669A1, “Aminoalcohol derivatives as beta-3 adrenergic receptor agonists” (priority 2002, published 2005)
